Laboratory results: US7332296B2, “Screening assay for enzymes involved in pathophysiology using SELDI-TOF mass spectrometry” (Wright State University, priority 2004, dated 2008)
Each block holds one molecule with its values, some of them ahead of it.

Assays:
Plasma ACE1 = target: T1, Plasma ACE1 (Mus musculus, UniProt P09470); assay: SELDI-TOF-MS assay of ACE activity in plasma (Ang I substrate, Ang II product); format: biochemical; conditions: data not shown
T1 construct: Plasma ACE1 converted Ang I (Ang 1-10; 1296.5 m/z) to Ang II; from tissue; host or cells: mouse plasma (crude, 0.5 µl)
T1 sequence (P09470 35-1237 limits assumed): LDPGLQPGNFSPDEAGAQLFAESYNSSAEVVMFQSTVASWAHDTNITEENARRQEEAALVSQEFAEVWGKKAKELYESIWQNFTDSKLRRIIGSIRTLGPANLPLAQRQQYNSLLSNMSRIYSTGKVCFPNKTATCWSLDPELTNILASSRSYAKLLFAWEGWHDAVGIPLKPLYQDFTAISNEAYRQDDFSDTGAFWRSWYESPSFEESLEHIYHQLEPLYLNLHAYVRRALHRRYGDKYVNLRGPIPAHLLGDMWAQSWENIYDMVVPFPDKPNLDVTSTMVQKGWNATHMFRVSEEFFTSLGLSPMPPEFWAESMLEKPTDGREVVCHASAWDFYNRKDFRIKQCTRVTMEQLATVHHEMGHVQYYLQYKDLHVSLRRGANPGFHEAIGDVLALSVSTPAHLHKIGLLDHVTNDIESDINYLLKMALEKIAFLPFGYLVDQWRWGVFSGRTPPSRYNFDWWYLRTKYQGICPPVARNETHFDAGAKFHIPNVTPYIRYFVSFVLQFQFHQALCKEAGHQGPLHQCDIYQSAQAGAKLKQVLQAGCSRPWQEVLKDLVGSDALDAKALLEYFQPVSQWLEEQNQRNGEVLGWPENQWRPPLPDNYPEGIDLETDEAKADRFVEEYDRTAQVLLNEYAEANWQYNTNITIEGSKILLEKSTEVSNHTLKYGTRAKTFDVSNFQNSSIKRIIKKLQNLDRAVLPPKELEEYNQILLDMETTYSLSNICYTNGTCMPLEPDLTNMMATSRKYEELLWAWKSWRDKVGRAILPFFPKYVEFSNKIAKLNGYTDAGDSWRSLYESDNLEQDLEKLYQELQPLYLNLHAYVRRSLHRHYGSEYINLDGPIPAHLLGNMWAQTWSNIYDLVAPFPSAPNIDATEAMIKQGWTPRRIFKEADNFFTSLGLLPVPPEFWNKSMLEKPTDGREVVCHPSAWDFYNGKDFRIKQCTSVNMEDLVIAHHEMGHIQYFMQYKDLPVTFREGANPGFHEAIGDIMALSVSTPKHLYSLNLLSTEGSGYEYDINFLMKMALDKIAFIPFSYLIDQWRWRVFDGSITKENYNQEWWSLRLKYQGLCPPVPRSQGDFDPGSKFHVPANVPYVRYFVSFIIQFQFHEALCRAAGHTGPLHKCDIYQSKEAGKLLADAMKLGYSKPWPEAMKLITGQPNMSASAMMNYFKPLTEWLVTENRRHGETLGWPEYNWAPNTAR

renin = target: T2, renin (Mus musculus, UniProt P06281); assay: SELDI-TOF-MS assay of renin activity in plasma (AGT substrate; sequential renin and ACE1); format: biochemical; conditions: AGT + plasma + captopril (10 μM); FIG. 1F
T2 construct: Plasma incubated with AGT (1759, m/z) results in peptides with m/z that matched Ang 1 and Ang II; from tissue; host or cells: mouse plasma (crude, 0.5 µl)
T2 sequence (P06281 72-402): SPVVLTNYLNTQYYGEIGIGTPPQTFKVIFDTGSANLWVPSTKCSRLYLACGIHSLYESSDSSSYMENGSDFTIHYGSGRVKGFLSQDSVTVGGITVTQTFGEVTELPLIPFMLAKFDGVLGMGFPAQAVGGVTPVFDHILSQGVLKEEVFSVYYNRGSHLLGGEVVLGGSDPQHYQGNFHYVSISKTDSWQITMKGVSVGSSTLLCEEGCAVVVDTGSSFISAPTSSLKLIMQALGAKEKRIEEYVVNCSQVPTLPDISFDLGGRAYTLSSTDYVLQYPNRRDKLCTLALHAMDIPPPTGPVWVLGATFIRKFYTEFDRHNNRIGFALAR
Experimental: For measurement of enzyme activities, substrates (Ang II or AGT) were incubated with plasma or tissue extracts and the peptide products were measured using SELDI-TOF MS. For ACE activity, plasma (0.5-2.5 μl) or tissue extracts (1 μg protein) were incubated in 50 μl MES buffer (50 mM, pH 6.7) containing 2 mM PMSF and varying concentrations of Ang I(0.1-10 μM) at 37° C. One μl of the reaction mixture was spotted onto ProteinChip arrays and analyzed as previously described in Cool, D. R. & Hardiman, A., “C-Terminal sequencing of peptide hormones using carboxypeptidase Y and SELDI-TOF mass spectrometry” Biotechniques 36, 32-34 (2004), incorporated herein by reference. […]. […]

ACE activity (conversion of Ang I to Ang II) (Plasma ACE1; 0.44 mM 1, 10 phenanthroline): blocked
Structure (SMILES): c1cnc2c(c1)ccc1cccnc12 [1, 10 phenanthroline]

ACE activity (conversion of Ang I to Ang II) (Plasma ACE1; 10 mM EDTA): blocked
Structure (SMILES): O=C(O)CN(CCN(CC(=O)O)CC(=O)O)CC(=O)O [EDTA]

effect on renin activity (renin): no effect
Structure (SMILES): C[C@H](CS)C(=O)N1CCC[C@H]1C(=O)O [captopril]
